In patent publication US10988477B2 (Merck Patent GmbH, priority 2018, dated 2021):
pKi: −log10 of the molar value.

Target: GCN2 kinase (Homo sapiens, UniProt Q9P2K8)
Experiment: GCN2 enzyme inhibition assay (Transcreener ADP2 fluorescence polarization)
Format: biochemical
Details: Enzyme activity for compounds of Formula IV; Ki(app), 280 μM ATP, 25° C.
In short: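 Inhibition of 4 nM GCN2 was measured with compound up to 8 μM final, ATP 280 μM and (RS)7 peptide 200 μM over a 1 h, 25 °C reaction. ADP FP readout; IC50 and Ki(app) calculated from percent inhibition.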

GCN2 kinase, sequence (Q9P2K8 whole entry): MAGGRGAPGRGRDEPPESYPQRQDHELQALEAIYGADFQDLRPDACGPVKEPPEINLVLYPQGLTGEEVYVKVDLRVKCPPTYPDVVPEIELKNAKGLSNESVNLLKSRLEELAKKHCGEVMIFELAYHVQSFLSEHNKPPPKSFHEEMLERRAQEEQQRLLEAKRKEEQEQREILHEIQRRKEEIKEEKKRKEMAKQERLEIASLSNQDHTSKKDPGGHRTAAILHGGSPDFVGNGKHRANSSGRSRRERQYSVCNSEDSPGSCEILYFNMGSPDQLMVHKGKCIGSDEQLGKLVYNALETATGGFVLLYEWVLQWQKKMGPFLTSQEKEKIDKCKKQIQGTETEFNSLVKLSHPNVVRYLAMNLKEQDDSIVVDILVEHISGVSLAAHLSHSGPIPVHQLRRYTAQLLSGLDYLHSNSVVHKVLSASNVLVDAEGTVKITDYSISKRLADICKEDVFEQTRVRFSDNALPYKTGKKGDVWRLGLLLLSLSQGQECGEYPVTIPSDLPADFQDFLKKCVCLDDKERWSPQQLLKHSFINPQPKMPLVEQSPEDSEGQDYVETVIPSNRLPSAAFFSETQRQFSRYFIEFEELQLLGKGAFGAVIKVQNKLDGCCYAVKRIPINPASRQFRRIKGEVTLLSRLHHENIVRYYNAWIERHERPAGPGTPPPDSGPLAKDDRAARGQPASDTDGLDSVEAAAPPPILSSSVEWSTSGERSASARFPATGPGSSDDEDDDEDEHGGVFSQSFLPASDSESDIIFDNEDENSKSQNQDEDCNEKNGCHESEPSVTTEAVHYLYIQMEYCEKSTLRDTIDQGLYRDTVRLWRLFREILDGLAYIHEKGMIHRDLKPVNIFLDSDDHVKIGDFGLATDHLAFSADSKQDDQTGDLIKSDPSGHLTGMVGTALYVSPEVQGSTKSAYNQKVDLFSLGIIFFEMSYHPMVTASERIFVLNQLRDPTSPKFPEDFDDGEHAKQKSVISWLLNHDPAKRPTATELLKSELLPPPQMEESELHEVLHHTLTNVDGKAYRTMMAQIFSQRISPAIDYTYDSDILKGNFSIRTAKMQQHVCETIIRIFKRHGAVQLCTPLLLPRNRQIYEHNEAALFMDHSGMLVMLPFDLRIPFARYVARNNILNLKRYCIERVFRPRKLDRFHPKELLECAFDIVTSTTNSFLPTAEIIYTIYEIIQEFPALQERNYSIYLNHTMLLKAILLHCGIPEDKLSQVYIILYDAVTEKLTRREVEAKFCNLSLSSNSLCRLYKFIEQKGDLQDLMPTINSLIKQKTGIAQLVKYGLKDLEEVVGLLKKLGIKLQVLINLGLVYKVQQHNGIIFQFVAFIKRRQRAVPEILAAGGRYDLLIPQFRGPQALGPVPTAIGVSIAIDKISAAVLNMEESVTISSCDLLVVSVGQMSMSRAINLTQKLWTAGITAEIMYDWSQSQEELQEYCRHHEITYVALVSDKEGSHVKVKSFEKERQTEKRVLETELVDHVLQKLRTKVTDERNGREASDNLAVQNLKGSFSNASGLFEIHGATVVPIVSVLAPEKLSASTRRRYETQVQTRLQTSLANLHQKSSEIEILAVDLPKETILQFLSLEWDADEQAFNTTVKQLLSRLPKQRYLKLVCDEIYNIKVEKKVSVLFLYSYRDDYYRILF

Row | SMILES | pKi
1 | OCCC1CCCCN1c1ccnc(-c2cnc3cnc(C(F)(F)F)cn23)n1 (stereo not drawn) [IV-438, 2-(1-(2-(6-(Trifluoromethyl)imidazo[1,2-a]pyrazin-3-yl)pyrimidin-4-yl)piperidin-2-yl)ethan-1-ol] | 6.00 to 7.00
2 | OCC1CCCCN1c1ccnc(-c2cnc3cnc(C(F)(F)F)cn23)n1 (stereo not drawn) [IV-440, (1-(2-(6-(Trifluoromethyl)imidazo[1,2-a]pyrazin-3-yl)pyrimidin-4-yl)piperidin-2-yl)methanol] | 6.00 to 7.00
3 | FC(F)(F)c1cn2c(-c3nccc(-c4cnn(C5CCOCC5)c4)n3)cnc2cn1 [IV-448, 3-(4-(1-(Tetrahydro-2H-pyran-4-yl)-1H-pyrazol-4-yl)pyrimidin-2-yl)-6-(trifluoromethyl)imidazo[1,2-a]pyrazine] | 6.00 to 7.00
4 | CC1NCCN(c2ccnc(-c3cnc4cnc(C(F)F)cn34)n2)C1c1cn[nH]c1 (stereo not drawn) [IV-455, 6-(Difluoromethyl)-3-(4-(3-methyl-2-(1H-pyrazol-4-yl)piperazin-1-yl)pyrimidin-2-yl)imidazo[1,2-a]pyrazine] | 6.00 to 7.00
5 | FC(F)(F)c1cn2c(-c3nccc(N4CCC(c5c[nH]cn5)C4)n3)cnc2cn1 (stereo not drawn) [IV-456, 3-(4-(3-(1H-Imidazol-4-yl)pyrrolidin-1-yl)pyrimidin-2-yl)-6-(trifluoromethyl)imidazo[1,2-a]pyrazine] | 6.00 to 7.00
6 | FC(F)(F)c1cn2c(-c3nccc(N4CCC(c5cc[nH]n5)C4)n3)cnc2cn1 (stereo not drawn) [IV-457, 3-(4-(3-(1H-Pyrazol-3-yl)pyrrolidin-1-yl)pyrimidin-2-yl)-6-(trifluoromethyl)imidazo[1,2-a]pyrazine] | 6.00 to 7.00
7 | CC1CC(C(N)=O)C(C)N(c2ccnc(-c3cnc4cnc(C(F)(F)F)cn34)n2)C1 (stereo not drawn) [IV-464, 2,5-Dimethyl-1-(2-(6-(trifluoromethyl)imidazo[1,2-a]pyrazin-3-yl)pyrimidin-4-yl)piperidine-3-carboxamide] | > 8.00
8 | Fc1n[nH]cc1C1CCCN(c2ccnc(-c3cnc4cnc(C(F)(F)F)cn34)n2)C1 (stereo not drawn) [IV-473, 3-(4-(3-(5-Fluoro-1H-pyrazol-4-yl)piperidin-1-yl)pyrimidin-2-yl)-6-(trifluoromethyl)imidazo[1,2-a]pyrazine] | > 8.00
9 | Nc1cnn(C2CCN(c3ccnc(-c4cnc5cnc(C(F)(F)F)cn45)n3)C2)c1 (stereo not drawn) [IV-478, 1-(1-(2-(6-(Trifluoromethyl)imidazo[1,2-a]pyrazin-3-yl)pyrimidin-4-yl)pyrrolidin-3-yl)-1H-pyrazol-4-amine] | 6.00 to 7.00
10 | O=C(NCCO)C1CCCN(c2ccnc(-c3cnc4cnc(C(F)(F)F)cn34)n2)C1 (stereo not drawn) [IV-479, N-(2-Hydroxyethyl)-1-(2-(6-(trifluoromethyl)imidazo[1,2-a]pyrazin-3-yl)pyrimidin-4-yl)piperidine-3-carboxamide] | 6.00 to 7.00
11 | CS(=O)(=O)CC1CCCN(c2ccnc(-c3cnc4cnc(C(F)(F)F)cn34)n2)C1 (stereo not drawn) [IV-482, 3-(4-(3-((Methylsulfonyl)methyl)piperidin-1-yl)pyrimidin-2-yl)-6-(trifluoromethyl)imidazo[1,2-a]pyrazine] | 6.00 to 7.00
12 | CS(=O)(=O)C1CCCN(c2ccnc(-c3cnc4cnc(C(F)(F)F)cn34)n2)C1 (stereo not drawn) [IV-483, 3-(4-(3-(Methylsulfonyl)piperidin-1-yl)pyrimidin-2-yl)-6-(trifluoromethyl)imidazo[1,2-a]pyrazine] | 6.00 to 7.00
13 | FC(F)(F)c1cn2c(-c3ccnc(N4CCCC(c5c[nH]cn5)C4)n3)cnc2cn1 (stereo not drawn) [IV-484, 3-(2-(3-(1H-Imidazol-4-yl)piperidin-1-yl)pyrimidin-4-yl)-6-(trifluoromethyl)imidazo[1,2-a]pyrazine] | 7.00 to 8.00
14 | NCCC1CN(c2ccnc(-c3cnc4cnc(C(F)(F)F)cn34)n2)CCO1 (stereo not drawn) [IV-486] | 6.00 to 7.00
15 | NCC1CCN(c2ccnc(-c3cnc4cnc(C(F)(F)F)cn34)n2)CC1 [IV-487] | 6.00 to 7.00
16 | FC(F)(F)c1cn2c(-c3nccc(N4CCCC5(CCOC5)C4)n3)cnc2cn1 (stereo not drawn) [IV-496, 7-(2-(6-(Trifluoromethyl)imidazo[1,2-a]pyrazin-3-yl)pyrimidin-4-yl)-2-oxa-7-azaspiro[4.5]decane] | 6.00 to 7.00
17 | FC(F)(F)c1cn2c(-c3nccc(N4CC5CCOC5C4)n3)cnc2cn1 (stereo not drawn) [IV-497, 5-(2-(6-(Trifluoromethyl)imidazo[1,2-a]pyrazin-3-yl)pyrimidin-4-yl)hexahydro-2H-furo[2,3-a]pyrrole] | 6.00 to 7.00
18 | NC(C1CCCN(c2ccnc(-c3cnc4cnc(C(F)(F)F)cn34)n2)C1)C(F)(F)F (stereo not drawn) [IV-502, 2,2,2-Trifluoro-1-(1-(2-(6-(trifluoromethyl)imidazo[1,2-a]pyrazin-3-yl)pyrimidin-4-yl)piperidin-3-yl)ethan-1-amine] | 6.00 to 7.00
19 | NC(C1CCCN(c2ccnc(-c3cnc4cnc(C(F)(F)F)cn34)n2)C1)C(F)(F)F (stereo not drawn) [IV-503, 2,2,2-Trifluoro-1-(1-(2-(6-(trifluoromethyl)imidazo[1,2-a]pyrazin-3-yl)pyrimidin-4-yl)piperidin-3-yl)ethan-1-amine] | 6.00 to 7.00
20 | FC(F)(F)c1cn2c(-c3nccc(N4CCCC5(CCOCC5)C4)n3)cnc2cn1 [IV-505, 2-(2-(6-(Trifluoromethyl)imidazo[1,2-a]pyrazin-3-yl)pyrimidin-4-yl)-9-oxa-2-azaspiro[5.5]undecane] | 6.00 to 7.00
21 | COCC1CCCCN(c2ccnc(-c3cnc4cnc(C(F)(F)F)cn34)n2)C1 (stereo not drawn) [IV-509, 3-(4-(3-(Methoxymethyl)azepan-1-yl)pyrimidin-2-yl)-6-(trifluoromethyl)imidazo[1,2-a]pyrazine] | 6.00 to 7.00
22 | COCC1CCN(c2ccnc(-c3cnc4cnc(C(F)(F)F)cn34)n2)CC1 [IV-512, 3-(4-(4-(Methoxymethyl)piperidin-1-yl)pyrimidin-2-yl)-6-(trifluoromethyl)imidazo[1,2-a]pyrazine] | 6.00 to 7.00
23 | N#CC1CCN(c2ccnc(-c3cnc4cnc(C(F)(F)F)cn34)n2)CC1 [IV-513, 1-(2-(6-(Trifluoromethyl)imidazo[1,2-a]pyrazin-3-yl)pyrimidin-4-yl)piperidine-4-carbonitrile] | 6.00 to 7.00
24 | N#CCC1CCCN(c2ccnc(-c3cnc4cnc(C(F)(F)F)cn34)n2)C1 (stereo not drawn) [IV-514, 2-(1-(2-(6-(Trifluoromethyl)imidazo[1,2-a]pyrazin-3-yl)pyrimidin-4-yl)piperidin-3-yl)acetonitrile] | 6.00 to 7.00
25 | O=C1NC[C@@H]2CCN(c3ccnc(-c4cnc5cnc(C(F)(F)F)cn45)n3)C[C@H]12 [IV-515, (3aR,7aR)-5-(2-(6-(Trifluoromethyl)imidazo[1,2-a]pyrazin-3-yl)pyrimidin-4-yl)octahydro-3H-pyrrolo[3,4-a]pyridin-3-one] | 6.00 to 7.00

The remaining lines, values ahead:

Row | pKi | SMILES
26 | 6.00 to 7.00 | OC1CCN(c2ccnc(-c3cnc4cnc(C(F)(F)F)cn34)n2)C1 (stereo not drawn) [IV-433, 1-(2-(6-(Trifluoromethyl)imidazo[1,2-a]pyrazin-3-yl)pyrimidin-4-yl)pyrrolidin-3-ol]
27 | 6.00 to 7.00 | OCC1CCN(c2ccnc(-c3cnc4cnc(C(F)(F)F)cn34)n2)C1 (stereo not drawn) [IV-434, (1-(2-(6-(Trifluoromethyl)imidazo[1,2-a]pyrazin-3-yl)pyrimidin-4-yl)pyrrolidin-3-yl)methanol]
28 | 6.00 to 7.00 | OC1CCN(c2ccnc(-c3cnc4cnc(C(F)(F)F)cn34)n2)CC1 [IV-441, 1-(2-(6-(Trifluoromethyl)imidazo[1,2-a]pyrazin-3-yl)pyrimidin-4-yl)piperidin-4-ol]
29 | 6.00 to 7.00 | OCC1CCCCN(c2ccnc(-c3cnc4cnc(C(F)(F)F)cn34)n2)C1 (stereo not drawn) [IV-445, (1-(2-(6-(Trifluoromethyl)imidazo[1,2-a]pyrazin-3-yl)pyrimidin-4-yl)azepan-3-yl)methanol]
30 | 6.00 to 7.00 | OCC1CN(c2ccnc(-c3cnc4cnc(C(F)(F)F)cn34)n2)CCO1 (stereo not drawn) [IV-446, (4-(2-(6-(Trifluoromethyl)imidazo[1,2-a]pyrazin-3-yl)pyrimidin-4-yl)morpholin-2-yl)methanol]
31 | 6.00 to 7.00 | NCC1CN(c2ccnc(-c3cnc4cnc(C(F)(F)F)cn34)n2)CCO1 (stereo not drawn) [IV-489]
32 | 6.00 to 7.00 | O=C1CN(C2CCCN(c3ccnc(-c4cnc5cnc(C(F)(F)F)cn45)n3)C2)CCN1 (stereo not drawn) [IV-490, 4-(1-(2-(6-(Trifluoromethyl)imidazo[1,2-a]pyrazin-3-yl)pyrimidin-4-yl)piperidin-3-yl)piperazin-2-one]
33 | 6.00 to 7.00 | FC(F)(F)c1cn2c(-c3nccc(N4CCN5CCOCC5C4)n3)cnc2cn1 (stereo not drawn) [IV-504, 8-(2-(6-(Trifluoromethyl)imidazo[1,2-a]pyrazin-3-yl)pyrimidin-4-yl)octahydropyrazino[2,1-a][1,4]oxazine]
34 | 6.00 to 7.00 | CC(C)(C)C1OCN2CCN(c3ccnc(-c4cnc5cnc(C(F)(F)F)cn45)n3)CC12 (stereo not drawn) [IV-506, 1-(tert-Butyl)-7-(2-(6-(trifluoromethyl)imidazo[1,2-a]pyrazin-3-yl)pyrimidin-4-yl)hexahydro-3H-oxazolo[3,4-a]pyrazine]
35 | 6.00 to 7.00 | FC(F)(F)c1cn2c(-c3nccc(N4CCC(C5CCOCC5)C4)n3)cnc2cn1 (stereo not drawn) [IV-507, 3-(4-(3-(Tetrahydro-2H-pyran-4-yl)pyrrolidin-1-yl)pyrimidin-2-yl)-6-(trifluoromethyl)imidazo[1,2-a]pyrazine]
36 | 6.00 to 7.00 | FC(F)(F)c1cn2c(-c3nccc(N4CCC(C5COC5)C4)n3)cnc2cn1 (stereo not drawn) [IV-508, 3-(4-(3-(Oxetan-3-yl)pyrrolidin-1-yl)pyrimidin-2-yl)-6-(trifluoromethyl)imidazo[1,2-a]pyrazine]
37 | 6.00 to 7.00 | FC(F)(F)c1cn2c(-c3nccc(N4CCC(CN5CCOCC5)CC4)n3)cnc2cn1 [IV-510, 4-((1-(2-(6-(Trifluoromethyl)imidazo[1,2-a]pyrazin-3-yl)pyrimidin-4-yl)piperidin-4-yl)methyl)morpholine]
38 | 6.00 to 7.00 | FC(F)(F)c1cn2c(-c3nccc(N4CCC5(CC4)COC5)n3)cnc2cn1 [IV-511, 7-(2-(6-(Trifluoromethyl)imidazo[1,2-a]pyrazin-3-yl)pyrimidin-4-yl)-2-oxa-7-azaspiro[3.5]nonane]
39 | 6.00 to 7.00 | N#CC1CCCN(c2ccnc(-c3cnc4cnc(C(F)(F)F)cn34)n2)C1 (stereo not drawn) [IV-516, 1-(2-(6-(Trifluoromethyl)imidazo[1,2-a]pyrazin-3-yl)pyrimidin-4-yl)piperidine-3-carbonitrile]
